The target in this assay is CFTR-mediated chloride transport (Homo sapiens, UniProt P13569). Description: Corrector Assay A - membrane potential dye assay (enteroid cells). The settings on record: for Corrector Assay A % activity: % of chloride transport of triple combination control (1 μM (14S)-dispiro macrocycle + 3 μM tezacaftor + 300 nM ivacaftor); for EC50: read-out: Corrector Assay A EC50, human intestinal enteroid cells, 18-24 h incubation, acute 10 μM forskolin + 300 nM ivacaftor.

The values that follow come from US20220313698A1, “MODULATORS OF CYSTIC FIBROSIS TRANSMEMBRANE CONDUCTANCE REGULATOR” (Vertex Pharmaceuticals Incorporated, priority 2019, published 2022).

For the molecule `COC[C@@H]1CC[C@@H]2CN(c3nc(C(C)(C)C)ccc3C(=O)NS(=O)(=O)c3cccc(n3)N1)C(C)(C)C2` (single isomer, unassigned) [Compound 277], the “Corrector Assay A % activity” value was “+++ (+++ is >60%)” and the EC50 (as a rule, the concentration needed to bring the measured effect to its halfway point) is less than 1000 nM.
For `CC(C)(C)c1ccc2c(n1)N1C[C@@H](CC[C@@H](c3cc(C4CCOCC4)ccn3)Nc3cccc(n3)S(=O)(=O)NC2=O)CC1(C)C` (single isomer, unassigned) [Compound 122], in that order: “++ (++ is 30-60%)” and less than 1000 nM.
For `CC(C)(C)c1ccc2c(n1)N1C[C@@H](CCC(c3ccc(CCN)cn3)Nc3cccc(n3)S(=O)(=O)NC2=O)CC1(C)C` (some centres unmarked) [Compound 113], in that order: “++ (++ is 30-60%)” and less than 1000 nM.
`CC(C)(C)OC(=O)NCc1ccnc(C2CC[C@@H]3CN(c4nc(C(C)(C)C)ccc4C(=O)NS(=O)(=O)c4cccc(n4)N2)C(C)(C)C3)c1` (single isomer, unassigned) [Compound 119]: the “Corrector Assay A % activity” value was “+++ (+++ is >60%)” and the EC50 is less than 1000 nM.
For `CC(C)(C)c1ccc2c(n1)N1C[C@@H](CCC(c3ccc(C4=CCOCC4)cn3)Nc3cccc(n3)S(=O)(=O)NC2=O)CC1(C)C` (some centres unmarked) [Compound 168], in that order: “+++ (+++ is >60%)” and less than 1000 nM.
For the molecule `CC(C)=Cc1ccc(C2CC[C@@H]3CN(c4nc(C(C)(C)C)ccc4C(=O)NS(=O)(=O)c4cccc(n4)N2)C(C)(C)C3)nc1` (some centres unmarked) [Compound 182], the “Corrector Assay A % activity” value is given as “+++ (+++ is >60%)” and the EC50 is less than 1000 nM.
For `CC(C)(C)c1ccc2c(n1)N1C[C@@H](CC[C@@H](c3cc(-c4cn[nH]c4)ccn3)Nc3cccc(n3)S(=O)(=O)NC2=O)CC1(C)C` (single isomer, unassigned) [Compound 69], in that order: “++ (++ is 30-60%)” and less than 1000 nM.
Regarding `COC(=O)CCc1ccc(C2CC[C@@H]3CN(c4nc(C(C)(C)C)ccc4C(=O)NS(=O)(=O)c4cccc(n4)N2)C(C)(C)C3)nc1` (some centres unmarked) [Compound 90], the “Corrector Assay A % activity” value is “++ (++ is 30-60%)” and the EC50 is less than 1000 nM.
Take `CC(C)(C)c1ccc2c(n1)N1C[C@@H](CCC(c3ccc(CO)cn3)Nc3cccc(n3)S(=O)(=O)NC2=O)CC1(C)C` (stereo partly drawn) [Compound 79, (14S)-8-tert-butyl-17-[5-(hydroxymethyl)pyridin-2-yl]-12,12-dimethyl-2λ^6-thia-3,9,11,18,23-pentaazatetracyclo[17.3.1.111,14.05,10]tetracosa-1(23),5(10),6,8,19,21-hexaene-2,2,4-trione]: the “Corrector Assay A % activity” value is on record as “+++ (+++ is >60%)” and the EC50 was less than 1000 nM.
With `CC(C)(C)c1ccc2c(n1)N1C[C@@H](CC[C@@H](c3cc(CCN)ccn3)Nc3cccc(n3)S(=O)(=O)NC2=O)CC1(C)C` (single isomer, unassigned) [Compound 84], the “Corrector Assay A % activity” value is given as “+++ (+++ is >60%)” and the EC50 is less than 1000 nM.
For `CC(C)(C)c1ccc2c(n1)N1C[C@@H](CC[C@H](c3cccc(C4CCNCC4)n3)Nc3cccc(n3)S(=O)(=O)NC2=O)CC1(C)C` [Compound 132, (14S,17R)-8-tert-Butyl-12,12-dimethyl-17-[6-(piperidin-4-yl)pyridin-2-yl]-2λ^6-thia-3,9,11,18,23-pentaazatetracyclo[17.3.1.111,14.05,10]tetracosa-1(23),5(10),6,8,19,21-hexaene-2,2,4-trione], in that order: “++ (++ is 30-60%)” and less than 1000 nM.
For `CC1(C)C[C@@H]2CC[C@H](c3cccc(C(F)(F)F)n3)Nc3cccc(n3)S(=O)(=O)NC(=O)c3ccc(-c4cccc(F)n4)nc3N1C2` [Compound 308, (14S,17R)-8-(6-fluoropyridin-2-yl)-12,12-dimethyl-17-[6-(trifluoromethyl)pyridin-2-yl]-2λ^6-thia-3,9,11,18,23-pentaazatetracyclo[17.3.1.111,14.05,10]tetracosa-1(22),5,7,9,19(23),20-hexaene-2,2,4-trione], in that order: “++ (++ is 30-60%)” and less than 1000 nM.
As to `CC(C)(C)c1ccc2c(n1)N1CC(CCCNc3cc(O)cc(n3)S(=O)(=O)NC2=O)CC1(C)C` (single isomer, unassigned) [Compound 251, 8-tert-butyl-21-hydroxy-12,12-dimethyl-2λ^6-thia-3,9,11,18,23-pentaazatetracyclo[17.3.1.111,14.05,10]tetracosa-1(23),5,7,9,19,21-hexaene-2,2,4-trione], the “Corrector Assay A % activity” value is listed as “+ (+ is <30%)”.
As for `CC(C)Cc1ccc(C2CC[C@@H]3CN(c4nc(C(C)(C)C)ccc4C(=O)NS(=O)(=O)c4cccc(n4)N2)C(C)(C)C3)nc1` (stereo partly drawn) [Compound 181, (14S)-8-tert-butyl-12,12-dimethyl-17-[5-(2-methylpropyl)pyridin-2-yl]-2λ^6-thia-3,9,11,18,23-pentaazatetracyclo[17.3.1.111,14.05,10]tetracosa-1(23),5(10),6,8,19,21-hexaene-2,2,4-trione], the “Corrector Assay A % activity” value is recorded as “++ (++ is 30-60%)” and the EC50 is less than 1000 nM.
For `CC(C)(C)c1ccc2c(n1)N1C[C@@H](CC[C@H](c3cccc(CCC#N)n3)Nc3cccc(n3)S(=O)(=O)NC2=O)CC1(C)C` [Compound 140], in that order: “++ (++ is 30-60%)” and less than 1000 nM.
For `CC(C)(C)c1ccc2c(n1)N1C[C@@H](CCC(CCCC(=O)NCc3ccccc3)Nc3cccc(n3)S(=O)(=O)NC2=O)CC1(C)C` (stereo partly drawn) [Compound 15, N-benzyl-4-[(14S)-8-tert-butyl-12,12-dimethyl-2,2,4-trioxo-2λ^6-thia-3,9,11,18,23-pentaazatetracyclo[17.3.1.111,14.05,10]tetracosa-1(23),5(10),6,8,19,21-hexaen-17-yl]butanamide], the “Corrector Assay A % activity” value was “+++ (+++ is >60%)” and the EC50 was less than 1000 nM.
For `CC(C)(C)c1ccc2c(n1)N1C[C@@H](CCC(CC(O)CO)Nc3cccc(n3)S(=O)(=O)NC2=O)CC1(C)C` (single isomer, unassigned) [Compound 32], in that order: “+++ (+++ is >60%)” and less than 1000 nM.
On to `CC1(C)OCCc2cc3c(nc21)N1C[C@@H](CCC(c2ccccn2)Nc2cccc(n2)S(=O)(=O)NC3=O)CC1(C)C` (single isomer, unassigned) [Compound 212], for which the “Corrector Assay A % activity” value was “+++ (+++ is >60%)” and the EC50 was less than 1000 nM.
For `CC(C)(C)c1ccc2c(n1)N1C[C@@H](CCC(c3ccc(C4CC(F)(F)C4)cn3)Nc3cccc(n3)S(=O)(=O)NC2=O)CC1(C)C` (some centres unmarked) [Compound 21], in that order: “+++ (+++ is >60%)” and less than 1000 nM.
For `CC(C)(C)c1ccc2c(n1)N1C[C@@H](CC[C@H](c3cccc(C4CNC4)n3)Nc3cccc(n3)S(=O)(=O)NC2=O)CC1(C)C` [Compound 152], in that order: “+++ (+++ is >60%)” and less than 1000 nM.
For `CC(C)c1ccc(-c2ccc3c(n2)N2C[C@@H](CC[C@@H](c4ccccn4)Nc4cccc(n4)S(=O)(=O)NC3=O)CC2(C)C)cc1` [Compound 348], the “Corrector Assay A % activity” value was “++ (++ is 30-60%)” and the EC50 is less than 1000 nM.
Take `CC1(C)C[C@@H]2CC[C@@H](c3ccccn3)Nc3cccc(n3)S(=O)(=O)NC(=O)c3ccc(C#N)nc3N1C2` [Compound 192]: the “Corrector Assay A % activity” value is “+ (+ is <30%)” and the EC50 lay within 1000 to 3000 nM.
Take `CC(C)(C)c1ccc2c(n1)N1C[C@@H](CC[C@H](c3cc(C(F)(F)F)ccn3)Nc3cccc(n3)S(=O)(=O)NC2=O)CC1(C)C` (single isomer, unassigned) [Compound 93]: the “Corrector Assay A % activity” value is reported as “+++ (+++ is >60%)” and the EC50 is less than 1000 nM.
For `C=CCC1CC[C@@H]2CN(c3nc(C(C)(C)C)ccc3C(=O)NS(=O)(=O)c3cccc(n3)N1)C(C)(C)C2` (single isomer, unassigned) [Compound 34], in that order: “+++ (+++ is >60%)” and less than 1000 nM.
For `CC1CCC2CN(c3nc(C(C)(C)C)ccc3C(=O)NS(=O)(=O)c3ccn1n3)C(C)(C)C2` (single isomer, unassigned) [Compound 273], in that order: “++ (++ is 30-60%)” and 1000 to 3000 nM.
Turning to `CC(C)(C)c1ccc2c(n1)N1C[C@@H](CCC(c3ccc(CCC#N)cn3)Nc3cccc(n3)S(=O)(=O)NC2=O)CC1(C)C` (single isomer, unassigned) [Compound 145], the “Corrector Assay A % activity” value was “++ (++ is 30-60%)” and the EC50 is less than 1000 nM.
For `CC(C)(C)c1ccc2c(n1)N1C[C@@H](CCC(c3ccc(Br)cn3)Nc3cccc(n3)S(=O)(=O)NC2=O)CC1(C)C` (single isomer, unassigned) [Compound 171], in that order: “++ (++ is 30-60%)” and less than 1000 nM.
Regarding `CC(C)(C)c1ccc2c(n1)N1C[C@@H](CCC(c3cc(C(C)(C)O)ccn3)Nc3cccc(n3)S(=O)(=O)NC2=O)CC1(C)C` (single isomer, unassigned) [Compound 36], the “Corrector Assay A % activity” value is “+++ (+++ is >60%)” and the EC50 was less than 1000 nM.
For the molecule `CC(C)(C)c1ccc2c(n1)N1C[C@@H](CC[C@@H](c3cccc(CN)n3)Nc3cccc(n3)S(=O)(=O)NC2=O)CC1(C)C` [Compound 202], the “Corrector Assay A % activity” value is reported as “++ (++ is 30-60%)” and the EC50 is less than 1000 nM.
In the case of `CC(=O)NCc1ccc(C2CC[C@@H]3CN(c4nc(C(C)(C)C)ccc4C(=O)NS(=O)(=O)c4cccc(n4)N2)C(C)(C)C3)nc1` (stereo partly drawn) [Compound 72, N-({6-[(14S)-8-tert-Butyl-12,12-dimethyl-2,2,4-trioxo-2λ^6-thia-3,9,11,18,23-pentaazatetracyclo[17.3.1.111,14.05,10]tetracosa-1(23),5(10),6,8,19,21-hexaen-17-yl]pyridin-3-yl}methyl)acetamide], the “Corrector Assay A % activity” value is “++ (++ is 30-60%)” and the EC50 was less than 1000 nM.
